Test results reported in patent US3939270A, “Pharmaceutical preparations containing α-aminopenicillins” (priority 1970, dated 1976).
≈ marks a conversion by molar mass, not a printed value.

Tests used:
[1] = hydrolysis of esters in phosphate buffer; assay type: in vitro ADME; conditions: pH 7.4, 10 μg/ml, 30 min, 37°C, corrected for blank, read-out: % hydrolyzed after 30 min at 37°C, phosphate buffer
Protocol: (§1) The hydrolysis of the esters of the aminopenicillins prepared according to the invention were determined in buffer solution with and without human serum being present. The esters were incubated for 30 min at 37°C at a concentration of 10 μg/ml in Sorensen's phosphate buffer (pH 7.4) and in another experiment in the same buffer containing 10 % human serum. The test solutions were extracted with ethyl acetate to remove unhydrolyzed ester and were analyzed microbiologically for their contents of aminopenicillin. Blank values were obtained by dissolving the esters in phosphate buffer at the same concentration and immediately perform the extraction. The values in the table are corrected for the blank values.

[2] = hydrolysis of esters in phosphate buffer + 10% human serum; assay type: in vitro ADME; conditions: buffer with 10% serum; pH 7.4, 10% human serum, 10 μg/ml, 30 min, 37°C, corrected for blank; read-out: % hydrolyzed after 30 min at 37°C, phosphate buffer + 10% human serum
Protocol: as §1

[3] = background statement on α-aminobenzylpenicillin; cited from earlier work
P.mirabilis = test: antibacterial activity, tube dilution procedure in broth, P. mirabilis; assay type: cell-based; conditions: Proteus mirabilis
Description: (§2) (termination of concentration according to the hydroxamate method; antibacterial activity determined by tube dilution procedure in broth).

E.coli [4] = test: antibacterial activity, tube dilution procedure in broth, E. coli; assay type: cell-based; conditions: Escherichia coli
Description: as §2

Staph.aur. Oxford = test: antibacterial activity, tube dilution procedure in broth, Staph. aureus Oxford; assay type: cell-based; conditions: Staphylococcus aureus
Description: as §2

Staph. aureus Oxford [5] = test: growth inhibition of Staph. aureus Oxford (Examples); assay type: cell-based; conditions: for MIC: Staphylococcus aureus, read-out: inhibited the growth of Staph. aureus Oxford at a concentration of
P. mirabilis = test: growth inhibition of P. mirabilis (Example 7a); assay type: cell-based; conditions: Proteus mirabilis; read-out: inhibited the growth of P. mirabilis at
E. coli = test: growth inhibition of E. coli (Example 7a); assay type: cell-based; conditions: Escherichia coli; read-out: inhibited the growth of E. coli at
[6] = human, in vivo, po, 480 min
Protocol: The oral absorption of 1'-ethoxycarbonyloxyethyl 6-(D-α-aminophenylacetamino)penicillanate (I) and of 1'-acetoxyethyl6-(D-α-aminophenylacetamido)penicillanate (II) was studied in a cross-over experiment in 9 healthy male volunteers using 6-(D-α-aminophenylacetamido)penicillanic acid (ampicillin) as a reference. The compounds were administered in tablets with the following composition:
The amounts of the esters correspond to 250 mg of free ampicillin. The reference compound was given in a commercially available tablet (Doktacillin 0.25 g) containing 250 mg of free ampicillin. The tablets were taken on an empty stomach. Blood samples were drawn at preset intervals and analyzed for their contents of ampicillin using a microbiological essay. The following mean serum levels (in μg/ml) with standard error of the mean were found:
The mean cumulative urinary excretions after 8 hours in percentage of the dose given were: […]

E.coli [7] = test: growth inhibition of E. coli, solution test on agar; assay type: cell-based; conditions: Escherichia coli, read-out: inhibited the growth of E.coli at
Protocol: (§3) The product inhibited the growth of Staph. Aureus Oxford at a concentration of 0.13 μg/ml and of E.coliat 125 μg/ml (solution test on agar) and contained in its IR-spectrum a strong absorption band at 1750 cm^-^1 showing presence of a β-lactame and an ester function.

Staph. aureus Oxford [8] = test: growth inhibition of Staph. aureus Oxford, solution test on agar; assay type: cell-based; conditions: Staphylococcus aureus, read-out: inhibited the growth of Staph. Aureus Oxford at a concentration of
Protocol: as §3

Row | SMILES | degraded at 0.5 h [1] [%] | metabolised at 0.5 h [2] [%] | MIC (Staph. aureus Oxford [5]) [µg/mL] | other results
1 | CCCCC(=O)OC(C)OC(=O)[C@@H]1N2C(=O)[C@@H](NC(=O)[C@H](N)c3ccccc3)[C@H]2SC1(C)C (stereo partly drawn) [10 --CH--OCOC4 H9, 1'-valeryloxy-ethyl 6-(D-α-aminophenylacetamido)penicillanate] | 4.9 | 14.3 | – | –
2 | CC(OC(=O)C(C)C)OC(=O)[C@@H]1N2C(=O)[C@@H](NC(=O)[C@H](N)c3ccccc3)[C@H]2SC1(C)C (stereo partly drawn) [10 --CH--OCOCH(CH3)2, 1'-isobutyroxy-ethyl 6-(D-α-aminophenylacetamido)penicillanate] | 5.2 | 12.1 | – | –
3 | CC1(C)S[C@@H]2[C@H](NC(=O)[C@H](N)c3ccccc3)C(=O)N2[C@H]1C(=O)O [Ampicillin, 6-(D-α-aminophenylacetamido)penicillanic acid] | – | – | – | oral absorption [3]: orally absorbed relatively incompletely
4 | CCOC(=O)NCOC(=O)[C@@H]1N2C(=O)[C@@H](NC(=O)[C@H](N)c3ccccc3)[C@H]2SC1(C)C [Ethylcarbamatomethylester, ethoxycarbonylaminomethyl 6-(D-α-aminophenylacetamido)penicillanate] | 7.1 | 15.2 | – | MIC (P.mirabilis): 6.25 µg/mL (≈ 13.9 µM); MIC (E.coli [4]): 12.5 µg/mL (≈ 27.7 µM); MIC (Staph.aur. Oxford): 0.16 µg/mL (≈ 0.355 µM)
5 | CC(=O)OC(C)OC(=O)[C@@H]1N2C(=O)[C@@H](NC(=O)C(N)CCC(C)C)[C@H]2SC1(C)C (stereo partly drawn) [Example 5, 1'-Acetoxyethyl α-amino-δ-methylpentylpenicillinate] | 6 | 15.3 | 0.63 (≈ 1.47 µM) | –
6 | CC(=O)OC(C)OC(=O)[C@@H]1N2C(=O)[C@@H](NC(=O)[C@H](N)c3ccccc3)[C@H]2SC1(C)C (stereo partly drawn) [Example 7, 1'-Acetoxyethyl 6-(D-α-aminophenylacetamido)penicillanate] | 7 | 17 | 0.32 (≈ 0.735 µM) | MIC (P. mirabilis): 50 µg/mL (≈ 115 µM); MIC (E. coli): 50 µg/mL (≈ 115 µM); inhibited the growth of Staph. aureus Oxford at a concentration of (Staph. aureus Oxford [5]; listed as Example 7b): 0.25 µg/mL; mean cumulative urinary excretion after 8 hours in percentage of the dose given [6]: 53.7 ± 4.9%
7 | CCC(=O)OC(C)OC(=O)[C@@H]1N2C(=O)[C@@H](NC(=O)[C@H](N)c3ccccc3)[C@H]2SC1(C)C (stereo partly drawn) [Example 9, 1'-Propionyloxyethyl 6-(D-α-aminophenylacetamido) penicillanate] | 6.8 | 17.6 | 0.63 (≈ 1.4 µM) | –
8 | COC(=O)OCOC(=O)[C@@H]1N2C(=O)[C@@H](NC(=O)[C@H](N)c3ccccc3)[C@H]2SC1(C)C [Example 12, Methoxycarbonyloxymethyl 6-(D-α-aminophenylacetamido) penicillanate] | 24.8 | 77.9 | 0.13 (≈ 0.297 µM) | MIC (P.mirabilis): 6.25 µg/mL (≈ 14.3 µM); MIC (E.coli [4]): 25 µg/mL (≈ 57.1 µM); MIC (Staph.aur. Oxford): 0.16 µg/mL (≈ 0.366 µM)
9 | CCOC(=O)OC(C)OC(=O)[C@@H]1N2C(=O)[C@@H](NC(=O)[C@H](N)c3ccccc3)[C@H]2SC1(C)C (stereo partly drawn) [Example 15, 1'-Ethoxycarbonyloxyethyl 6-(D-α-aminophenylacetamido) penicillanate] | 3.8 | 57.1 | 0.13 (≈ 0.279 µM) | MIC (E.coli [7]): 125 µg/mL (≈ 269 µM); MIC (Staph. aureus Oxford [8]): 0.13 µg/mL (≈ 0.279 µM); mean cumulative urinary excretion after 8 hours in percentage of the dose given [6]: 53.4 ± 2.5%
10 | CCOC(=O)OCOC(=O)[C@@H]1N2C(=O)[C@@H](NC(=O)[C@H](N)c3ccccc3)[C@H]2SC1(C)C [Example 17, Ethoxycarbonyloxymethyl 6-(D-α-aminophenylacetamido) penicillanate] | 13.3 | 64.7 | 0.05 (≈ 0.111 µM) | –
11 | CCCOC(=O)OCOC(=O)[C@@H]1N2C(=O)[C@@H](NC(=O)[C@H](N)c3ccccc3)[C@H]2SC1(C)C [Example 18, Propoxycarbonyloxymethyl 6-(D-α-aminophenylacetamido) penicillanate] | 14.5 | 53.7 | 0.05 (≈ 0.107 µM) | –
12 | CC(C)OC(=O)OCOC(=O)[C@@H]1N2C(=O)[C@@H](NC(=O)[C@H](N)c3ccccc3)[C@H]2SC1(C)C [Example 19, Isopropoxycarbonyloxymethyl 6-(D-α-aminophenylacetamido)penicillanate] | 15.2 | 68.4 | 0.05 (≈ 0.107 µM) | –
13 | CCCCOC(=O)OCOC(=O)[C@@H]1N2C(=O)[C@@H](NC(=O)[C@H](N)c3ccccc3)[C@H]2SC1(C)C [Example 20, Butoxycarbonyloxymethyl 6-(D-α-aminophenylacetamido) penicillanate] | 13 | 41.1 | 0.05 (≈ 0.104 µM) | –
14 | CC(=O)OC(C)OC(=O)[C@@H]1N2C(=O)[C@@H](NC(=O)[C@H](N)c3cccc(F)c3)[C@H]2SC1(C)C (stereo partly drawn) [Example 22, 1'-acetoxy-ethyl 6-(D-α-amino-m-fluorophenylacetamido) penicillanate] | 3.1 | 16.4 | 0.25 (≈ 0.551 µM) | –
15 | CCOC(=O)OC(C)OC(=O)[C@@H]1N2C(=O)[C@@H](NC(=O)[C@H](N)c3cccc(F)c3)[C@H]2SC1(C)C (stereo partly drawn) [Example 23, 1'-Ethyloxycarbonyloxyethyl 6-(D-α-amino-m-fluorophenylacetamido)penicillanate] | 2.6 | 37.7 | – | –
16 | CC(=O)OC(C)OC(=O)[C@@H]1N2C(=O)[C@@H](NC(=O)[C@H](N)c3ccc(F)cc3)[C@H]2SC1(C)C (stereo partly drawn) [Example 24, 1'-Acetoxyethyl 6-(D-α-amino-p-fluorophenylacetamido)penicillanate] | 9 | 14.3 | 0.25 (≈ 0.551 µM) | –
17 | CCOC(=O)OC(C)OC(=O)[C@@H]1N2C(=O)[C@@H](NC(=O)[C@H](N)c3ccc(F)cc3)[C@H]2SC1(C)C (stereo partly drawn) [Example 25, 1'-Ethyloxycarbonyloxyethyl 6-(D-α-amino-p-fluorophenylacetamido)penicillanate] | 1.4 | 20.2 | 0.25 (≈ 0.517 µM) | –
18 | CC(=O)OC(C)OC(=O)[C@@H]1N2C(=O)[C@@H](NC(=O)C(N)c3ccc(Cl)cc3)[C@H]2SC1(C)C (stereo partly drawn) [Example 26, 1'-Acetoxyetyl 6-(α-amino-p-chlorophenylacetamido)penicillanate] | 10.8 | 15.6 | 0.63 (≈ 1.34 µM) | –
19 | CC(=O)OC(C)OC(=O)[C@@H]1N2C(=O)[C@@H](NC(=O)[C@H](N)c3ccc(O)cc3)[C@H]2SC1(C)C (stereo partly drawn) [Example 27, 1'-Acetoxyethyl 6-(D-α-amino-p-hydroxyphenylacetamido)penicillanate] | 2.5 | 6.8 | 0.25 (≈ 0.554 µM) | –
20 | CCOC(=O)OC(C)OC(=O)[C@@H]1N2C(=O)[C@@H](NC(=O)[C@H](N)c3ccc(O)cc3)[C@H]2SC1(C)C (stereo partly drawn) [Example 28, 1'-Ethoxycarbonyloxyethyl 6-(D-α-amino-p-hydroxyphenylacetamido)penicillanate] | 5 | 33.1 | 0.25 (≈ 0.519 µM) | –
21 | CC(=O)OC(C)OC(=O)[C@@H]1N2C(=O)[C@@H](NC(=O)C(N)c3ccoc3)[C@H]2SC1(C)C (stereo partly drawn) [Example 29, 1'-Acetoxyethyl 6-(α-amino-3-furylacetamido)penicillanate] | 3.5 | 12.4 | 0.63 (≈ 1.48 µM) | –
